Assay results taken from patent publication US20260132129A1 (Genesis Therapeutics, Inc., priority 2022, published 2026).
Counter-ions that a name gives are not always drawn.

Biological target: T1, PI3Kα H1047R (T47D cells) (Homo sapiens, UniProt P42336, H1047R)
T1 construct: endogenous in cells; host or cells: T47D cells
Assay: PI3Kα cellular assay: pAKT HTRF in T47D cells after EGF stimulation
Format: cell-based
Details: for IC50: T47D cells (PI3Kα H1047R), pAKT S473 HTRF, 1 hr compound, 20 ng/ml EGF 10 min
Method in brief: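 pAKT read by HTRF in lysates of EGF-stimulated (20 ng/mL, 10 min) T47D H1047R cells. Before stimulation, serum-starved cells (16 h) received compound for 1 h at 37 °C, dosed from 10,000 nM down to 0.5 nM in 3-fold steps.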

T1 sequence (P42336 whole entry H1047R): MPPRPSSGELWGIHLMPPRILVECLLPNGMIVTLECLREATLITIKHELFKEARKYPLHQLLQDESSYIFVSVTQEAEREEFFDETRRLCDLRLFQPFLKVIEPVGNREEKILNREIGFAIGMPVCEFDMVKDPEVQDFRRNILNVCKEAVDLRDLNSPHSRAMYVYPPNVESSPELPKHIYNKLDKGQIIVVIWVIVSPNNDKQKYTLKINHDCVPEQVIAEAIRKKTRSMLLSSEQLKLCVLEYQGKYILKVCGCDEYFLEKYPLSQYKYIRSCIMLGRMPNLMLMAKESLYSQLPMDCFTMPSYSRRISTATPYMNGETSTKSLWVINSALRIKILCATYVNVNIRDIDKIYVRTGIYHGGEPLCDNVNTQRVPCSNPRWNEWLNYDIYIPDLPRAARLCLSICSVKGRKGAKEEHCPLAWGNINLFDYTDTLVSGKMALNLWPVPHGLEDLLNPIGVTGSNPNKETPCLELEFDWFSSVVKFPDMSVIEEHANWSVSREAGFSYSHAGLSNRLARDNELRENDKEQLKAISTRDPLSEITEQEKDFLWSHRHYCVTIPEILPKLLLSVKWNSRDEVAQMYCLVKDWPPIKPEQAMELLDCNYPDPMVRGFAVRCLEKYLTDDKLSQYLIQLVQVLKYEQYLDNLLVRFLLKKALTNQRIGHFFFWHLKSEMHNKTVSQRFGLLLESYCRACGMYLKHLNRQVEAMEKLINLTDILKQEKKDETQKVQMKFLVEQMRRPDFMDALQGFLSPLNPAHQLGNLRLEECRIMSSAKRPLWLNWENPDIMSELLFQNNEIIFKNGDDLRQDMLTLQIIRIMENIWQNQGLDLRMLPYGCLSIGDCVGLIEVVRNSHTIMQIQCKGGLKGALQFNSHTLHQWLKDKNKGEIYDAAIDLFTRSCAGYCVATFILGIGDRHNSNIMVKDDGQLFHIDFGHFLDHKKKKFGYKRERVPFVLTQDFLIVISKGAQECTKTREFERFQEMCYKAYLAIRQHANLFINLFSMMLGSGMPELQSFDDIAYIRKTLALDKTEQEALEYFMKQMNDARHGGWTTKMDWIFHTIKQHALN
T1 sequence (P27986 whole entry partner): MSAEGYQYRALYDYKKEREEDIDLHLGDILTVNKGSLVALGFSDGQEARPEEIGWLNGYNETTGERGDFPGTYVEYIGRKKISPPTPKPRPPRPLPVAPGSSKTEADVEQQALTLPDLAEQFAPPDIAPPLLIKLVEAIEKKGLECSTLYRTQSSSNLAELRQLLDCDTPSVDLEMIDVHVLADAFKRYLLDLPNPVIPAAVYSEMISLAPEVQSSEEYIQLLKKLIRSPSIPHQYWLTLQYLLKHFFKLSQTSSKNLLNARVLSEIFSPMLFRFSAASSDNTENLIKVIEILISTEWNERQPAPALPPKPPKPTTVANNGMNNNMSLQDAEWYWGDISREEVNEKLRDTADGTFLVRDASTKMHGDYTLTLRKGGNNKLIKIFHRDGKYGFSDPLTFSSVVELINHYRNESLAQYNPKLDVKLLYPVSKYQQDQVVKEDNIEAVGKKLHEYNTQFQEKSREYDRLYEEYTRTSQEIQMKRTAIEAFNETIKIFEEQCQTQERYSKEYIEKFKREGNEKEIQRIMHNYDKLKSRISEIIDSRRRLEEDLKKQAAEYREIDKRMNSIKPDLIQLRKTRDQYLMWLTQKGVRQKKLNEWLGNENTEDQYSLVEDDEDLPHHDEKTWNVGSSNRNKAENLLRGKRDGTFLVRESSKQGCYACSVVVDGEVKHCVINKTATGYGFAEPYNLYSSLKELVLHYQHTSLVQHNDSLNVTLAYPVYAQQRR

Row | IC50 | T47D pAKT S473 HTRF IC50 (H1047R): T47D (H1047R) selectivity over SKBR3 (WT) | SMILES
1 | > 2000 nM | C (C denotes ≤5-fold) | Cc1cc(C(C)Nc2ccccc2C#N)c2nc(N3CCOCC3)cc(=O)n2c1 (centres unmarked) [Compound 321]
2 | > 2000 nM | C (C denotes ≤5-fold) | COc1ccc(C(=O)O)c(NC(C)c2cc(C)cn3c(=O)cc(N4CCOCC4)nc23)c1 (centres unmarked) [Compound 323]
3 | > 2000 nM | C (C denotes ≤5-fold) | Cc1cc(C(C)Nc2cc(C#N)ccc2C(=O)O)c2nc(N3CCOCC3)cc(=O)n2c1 (centres unmarked) [Compound 326]
4 | > 2000 nM | C (C denotes ≤5-fold) | Cc1cc([C@@H](C)Nc2cccc(C)c2C(=O)O)c2nc(C3CCOCC3)cc(=O)n2c1 [Compound 330]
5 | > 2000 nM | C (C denotes ≤5-fold) | Cc1cc([C@@H](C)Nc2c(C)cccc2C(=O)O)c2nc(N3CCOCC3)cc(=O)n2c1 [Compound 335]
6 | > 2000 nM | C (C denotes ≤5-fold) | Cc1cc([C@H](C)Nc2ccccc2-n2nn[nH]c2=O)c2nc(N3CCOCC3)cc(=O)n2c1 [Compound 344]
7 | > 2000 nM | C (C denotes ≤5-fold) | CNC(=O)c1ccc(-c2cc(=O)n3cc(C)cc(C(C)Nc4ccccc4C(=O)O)c3n2)c(C)c1 (centres unmarked) [Compound 356]
8 | > 2000 nM | C (C denotes ≤5-fold) | Cc1cc(C(C)Nc2cnncc2C(=O)O)c2nc(N3CCOCC3)cc(=O)n2c1 (centres unmarked) [Compound 357]
9 | > 2000 nM | C (C denotes ≤5-fold) | Cc1cc([C@H](C)Nc2ccccc2C(=O)O)c2nc(N3CCC(C)CC3)cc(=O)n2c1 [Compound 360]
10 | > 2000 nM | C (C denotes ≤5-fold) | Cc1cc([C@H](C)Nc2ccccc2C(=O)O)c2nc(N3CCC(C)(C)CC3)cc(=O)n2c1 [Compound 362]
11 | 100 to 500 nM | A (A denotes >20-fold) | Cc1cc(C(C)Nc2ccccc2C(=O)O)c2nc(N3CC(Cl)C3)cc(=O)n2c1 (centres unmarked) [Compound 363]
12 | > 2000 nM | C (C denotes ≤5-fold) | Cc1cc([C@H](C)Nc2cnncc2C(=O)O)c2nc(N3CCOCC3)cc(=O)n2c1 [Compound 376]
13 | > 2000 nM | C (C denotes ≤5-fold) | Cc1cc([C@@H](C)Nc2ccnnc2C(=O)O)c2nc(N3CCOCC3)cc(=O)n2c1 [Compound 377]
14 | > 2000 nM | C (C denotes ≤5-fold) | Cc1cc([C@H](C)Nc2ccnnc2C(=O)O)c2nc(N3CCOCC3)cc(=O)n2c1 [Compound 378]
15 | > 2000 nM | C (C denotes ≤5-fold) | Cc1cc(C(C)Nc2ccccc2C(=O)O)c2nc(-c3cc[nH]c(=O)c3)cc(=O)n2c1 (centres unmarked) [Compound 380]

Second part, the molecule before the results:

Row | SMILES | IC50 | T47D pAKT S473 HTRF IC50 (H1047R): T47D (H1047R) selectivity over SKBR3 (WT)
16 | Cc1cc(C(C)Nc2ccccc2C(=O)O)c2nc(-c3ccc4[nH]nc(-c5ccccn5)c4c3)cc(=O)n2c1 (centres unmarked) [Compound 318] | > 2000 nM | C (C denotes ≤5-fold)
17 | Cc1cc([C@@H](C)Nc2ccccc2C(=O)O)c2nc(N3C[C@@H](C)O[C@@H](C)C3)cc(=O)n2c1 [Compound 319] | 100 to 500 nM | A (A denotes >20-fold)
18 | Cc1cc([C@H](C)Nc2ccccc2C(=O)O)c2nc(N3C[C@@H](C)O[C@@H](C)C3)cc(=O)n2c1 [Compound 320] | > 2000 nM | C (C denotes ≤5-fold)
19 | COc1cc(NC(C)c2cc(C)cn3c(=O)cc(N4CCOCC4)nc23)c(C(=O)O)cc1OC (centres unmarked) [Compound 325] | > 2000 nM | C (C denotes ≤5-fold)
20 | Cc1cc(C(C)Nc2cc(C(F)(F)F)ccc2C(=O)O)c2nc(N3CCOCC3)c(C)c(=O)n2c1 (centres unmarked) [Compound 328] | > 2000 nM | C (C denotes ≤5-fold)
21 | Cc1cc(C(C)Nc2ccc(C#N)cc2C(=O)O)c2nc(N3CCOCC3)cc(=O)n2c1 (centres unmarked) [Compound 329] | > 2000 nM | C (C denotes ≤5-fold)
22 | Cc1cc([C@H](C)Nc2cccc(F)c2C(=O)O)c2nc(N3CCOCC3)cc(=O)n2c1 [Compound 331] | > 2000 nM | C (C denotes ≤5-fold)
23 | Cc1cc([C@@H](C)Oc2ccc(F)cc2C(=O)O)c2nc(N3CCOCC3)cc(=O)n2c1 [Compound 332] | > 2000 nM | C (C denotes ≤5-fold)
24 | Cc1cc([C@@H](C)Nc2c(F)cccc2C(=O)O)c2nc(N3CCOCC3)cc(=O)n2c1 [Compound 333] | > 2000 nM | C (C denotes ≤5-fold)
25 | Cc1cc([C@H](C)Nc2c(F)cccc2C(=O)O)c2nc(N3CCOCC3)cc(=O)n2c1 [Compound 334] | > 2000 nM | C (C denotes ≤5-fold)
26 | Cc1cc([C@H](C)Nc2ccccc2C#N)c2nc(N3CCOCC3)cc(=O)n2c1 [Compound 338] | > 2000 nM | C (C denotes ≤5-fold)
27 | Cc1cc(C(C)Nc2ccccc2C(=O)O)c2nc(C3CCC(C)CC3)cc(=O)n2c1 (centres unmarked) [Compound 339] | – | C (C denotes ≤5-fold)
28 | Cc1cc([C@@H](C)Nc2ccccc2-n2nn[nH]c2=O)c2nc(N3CCOCC3)cc(=O)n2c1 [Compound 343] | > 2000 nM | C (C denotes ≤5-fold)
29 | Cc1cc(C(C)Nc2ccccc2S(N)(=O)=O)c2nc(-c3ccncc3)cc(=O)n2c1 (centres unmarked) [Compound 346] | 500 to 2000 nM | A (A denotes >20-fold)
30 | Cc1cc(C(C)Nc2ccccc2C(=O)O)c2nc(-c3ccc4c(c3)c(N)nn4C)cc(=O)n2c1 (centres unmarked) [Compound 347] | 100 to 500 nM | A (A denotes >20-fold)
31 | Cc1cc(C(C)Nc2ccccc2C(=O)O)c2nc(-c3ccc4[nH]nc(C)c4c3)cc(=O)n2c1 (centres unmarked) [Compound 348] | – | A (A denotes >20-fold)

Row | SMILES | IC50 | T47D pAKT S473 HTRF IC50 (H1047R): T47D (H1047R) selectivity over SKBR3 (WT)
32 | Cc1cc(C(C)Nc2ccccc2C(=O)O)c2nc(-c3cnc4[nH]nc(-c5ccccc5)c4c3)cc(=O)n2c1 (centres unmarked) [Compound 351] | > 2000 nM | C (C denotes ≤5-fold)
33 | COc1cc(-c2cc(=O)n3cc(C)cc(C(C)Nc4ccccc4C(=O)O)c3n2)cc(S(N)(=O)=O)c1 (centres unmarked) [Compound 355] | 500 to 2000 nM | B (B denotes 20-fold≥value>5-fold)
34 | Cc1cc(C(C)Nc2ccnnc2C(=O)O)c2nc(N3CCOCC3)cc(=O)n2c1 (centres unmarked) [Compound 358] | > 2000 nM | C (C denotes ≤5-fold)
35 | Cc1cc([C@@H](C)Nc2ccccc2C(=O)O)c2nc(N3CCC(C)CC3)cc(=O)n2c1 [Compound 359] | < 100 nM | A (A denotes >20-fold)
36 | Cc1cc([C@@H](C)Nc2ccccc2C(=O)O)c2nc(N3CCC(C)(C)CC3)cc(=O)n2c1 [Compound 361] | < 100 nM | A (A denotes >20-fold)
37 | Cc1cc([C@@H](C)Nc2ccccc2C(=O)O)c2nc(N3CC(Cl)C3)cc(=O)n2c1 [Compound 364] | < 100 nM | A (A denotes >20-fold)
38 | Cc1cc([C@H](C)Nc2ccccc2C(=O)O)c2nc(N3CC(Cl)C3)cc(=O)n2c1 [Compound 365] | > 2000 nM | C (C denotes ≤5-fold)
39 | Cc1cc(C(C)Nc2ccccc2C(=O)O)c2nc(Nc3ccc(C(=O)O)cc3)cc(=O)n2c1 (centres unmarked) [Compound 369] | > 2000 nM | C (C denotes ≤5-fold)
40 | Cc1cc(C(C)Nc2ccccc2C(=O)O)c2nc(N3CCO[C@H](C)C3)cc(=O)n2c1 (some centres unmarked) [Compound 372] | 100 to 500 nM | B (B denotes 20-fold≥value>5-fold)
41 | Cc1cc([C@H](C)Nc2ccccc2C(=O)O)c2nc(N3CCO[C@H](C)C3)cc(=O)n2c1 [Compound 374] | < 100 nM | A (A denotes >20-fold)
42 | Cc1cc([C@@H](C)Nc2cnncc2C(=O)O)c2nc(N3CCOCC3)cc(=O)n2c1 [Compound 375] | > 2000 nM | C (C denotes ≤5-fold)
43 | Cc1cc(C(C)Nc2c(C(=O)O)cnn2C)c2nc(N3CCOCC3)cc(=O)n2c1 (centres unmarked) [Compound 379] | > 2000 nM | C (C denotes ≤5-fold)
44 | Cc1cc([C@@H](C)Nc2c(C(=O)O)cnn2C)c2nc(N3CCOCC3)cc(=O)n2c1 [Compound 390] | > 2000 nM | C (C denotes ≤5-fold)
45 | Cc1cc([C@@H](C)Nc2ccccc2C(=O)O)c2nc(N3CCN(C)CC3)cc(=O)n2c1 [Compound 394] | > 2000 nM | C (C denotes ≤5-fold)
46 | Cc1cc([C@H](C)Nc2ccccc2C(=O)O)c2nc(N3Cc4ccccc4C3)cc(=O)n2c1 [Compound 403] | > 2000 nM | C (C denotes ≤5-fold)
47 | Cc1cc(C(C)Nc2ccccc2C(=O)O)c2nc(-c3cccnc3)cc(=O)n2c1 (centres unmarked) [Compound 416, 2-((1-(7-methyl-4-oxo-2-(pyridin-3-yl)-4H-pyrido[1,2-a]pyrimidin-9-yl)ethyl)amino)benzoic acid trifluoroacetate] | 100 to 500 nM | A (A denotes >20-fold)
